# Measured values published in publication PMC11237612, “Mutation of the peptide-regulated transcription factor ComR for amidated peptide specificity and heterologous function in Lactiplantibacillus plantarum WCFS1” (Microbiology Spectrum, 2024).
# Test system: S. thermophilus ComR containing five mutations (R92G, V205A, S248G, S289K, and I290T)
# Experiment: GFP signal in E. coli expressing five-mutation ComR
# Assay type: cell-based
# Settings: 100 µM peptide, GFP signal (Fig. S3)
# Text: The selection of mutant ComRs with altered specificity highlighted the utility of the screening system built in E. coli. We attempted to further validate this screening system by cloning a version of S. thermophilus ComR containing five mutations (R92G, V205A, S248G, S289K, and I290T), which was reported to have altered specificity for the 8 amino-acid long XIP from S. vestibularis (VPFFMIYY) ([20]).
# ComR sensor circuits were constructed on plasmid pACYC184 (American Type Culture Collection #37033) such that ComR activation promoted GFP expression. This was done by assembling synthetic dsDNA fragments (Integrated DNA Technology) using NEBuilder® HiFi DNA Assembly Master Mix (NEB, E2621S). The full sequence of plasmid pAC-J23107*-ComR, on which the ComR mutant library was made is included in supplemental materials. The ComR mutant (K100NNK) library was created by PCR amplifying all but the K100 codon and then assembling it with degenerate oligos (Integrated DNA Technology) using NEBuilder® HiFi DNA Assembly Master Mix (NEB, E2621S). […] Bacteria were incubated in a large radius shaker (Eppendorf S441) at 37°C for 9 hours, then GFP fluorescence was read using a TECAN Spark 20M plate reader. […]
sequence,measurement,value
"VPFFMIYY [S. vestibularis XIP, 8 amino-acid long XIP from S. vestibularis (VPFFMIYY)]",GFP signal of five-mutation ComR with S. vestibularis XIP,only a slight increase in GFP signal
